Experimental data from ChEMBL document CHEMBL1201862, “PubChem BioAssay data set” (2004).
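Briefly, cells in 96-well plates were exposed to five compound concentrations for 48 h, and endpoints were estimated by linear interpolation. GI50 = concentration required for 50% inhibition of growth.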 Calls of active or inactive are those of the source. No stated cut-off is given here; in the data, active = GI50 up to about 1.1 µM and inactive = higher.

Assays:
Test in all cases: inhibition of tumour cell growth, NCI panel, 48 h
HCT-116 = test system: HCT-116
UACC-257 = test system: UACC-257
HL-60 = test system: HL-60
COLO 205 = test system: COLO 205
NCI-H23 = test system: NCI-H23
MDA-MB-231 = test system: MDA-MB-231
HCT-15 = test system: HCT-15
HOP-92 = test system: HOP-92
SR = test system: SR
KM12 = test system: KM12
786-0 = test system: 786-0
SF-268 = test system: SF-268
OVCAR-5 = test system: OVCAR-5
CCRF-CEM = test system: CCRF-CEM
SK-MEL-5 = test system: SK-MEL-5
NCI/ADR-RES = test system: NCI/ADR-RES
A549 = test system: A549
TK-10 = test system: TK-10
SK-OV-3 = test system: SK-OV-3
A498 = test system: A498

Row | SMILES | GI50 (HCT-116) | GI50 (UACC-257) | GI50 (HL-60) | GI50 (COLO 205) | GI50 (NCI-H23) | GI50 (MDA-MB-231) | GI50 (HCT-15) [µM] | GI50 (HOP-92) | GI50 (SR) | GI50 (KM12) | GI50 (786-0) | GI50 (SF-268) | GI50 (OVCAR-5) | GI50 (CCRF-CEM) | GI50 (SK-MEL-5) | GI50 (NCI/ADR-RES) | GI50 (A549) | GI50 (TK-10) | GI50 (SK-OV-3) | GI50 (A498)
1 | CCN(CC)c1ccc(C(=C2C=CC(=[N+](CC)CC)C=C2)c2ccc(N(CC)CC)cc2)cc1 | 0.0493 µM (active) | 0.132 µM (active) | 0.0303 µM (active) | 0.0627 µM (active) | 0.0773 µM (active) | 0.063 µM (active) | 0.194 | 0.211 µM (active) | 0.0843 µM (active) | 0.0561 µM (active) | 0.057 µM (active) | 0.084 µM (active) | 0.303 µM (active) | 0.0593 µM (active) | 0.094 µM (active) | 0.521 µM (active) | 0.04 µM (active) | 0.214 µM (active) | 0.0773 µM (active) | 
2 | CCCCCCCCCCCCCCCCOCC(Cl)COP(=O)(O)OP(=O)(O)OCC1OC(n2cnc3c(N)ncnc32)C(O)C1O (stereo not given) | 38.1 µM (inactive) | > 100 µM (inactive) | > 100 µM (inactive) | > 100 µM (inactive) | > 100 µM (inactive) | 38.7 µM (inactive) | > 100 | 70.8 µM (inactive) |  | 86.9 µM (inactive) | > 100 µM (inactive) | > 100 µM (inactive) | 50.7 µM (inactive) | > 100 µM (inactive) | > 100 µM (inactive) | > 100 µM (inactive) | > 100 µM (inactive) | > 100 µM (inactive) | 68.5 µM (inactive) | > 100 µM (inactive)
3 | O=C(CCCN1CCC(O)(c2ccc(Cl)cc2)CC1)c1ccc(F)cc1 [HALOPERIDOL] | 15.1 µM (inactive) | 20.9 µM (inactive) |  | 18.6 µM (inactive) | 31 µM (inactive) | 22 µM (inactive) | 16.6 | 48.2 µM (inactive) | 48.1 µM (inactive) | 18.6 µM (inactive) | 19.4 µM (inactive) | 48.2 µM (inactive) | 28.8 µM (inactive) | 41.4 µM (inactive) | 15.9 µM (inactive) | 30.1 µM (inactive) | 42.8 µM (inactive) | 39.8 µM (inactive) | 34.9 µM (inactive) | 
4 | COCCOCN(C(=O)C1=CCC2(CC1)OCCO2)c1ccccc1I | > 50 µM (inactive) | > 50 µM (inactive) |  | > 50 µM (inactive) | > 50 µM (inactive) | > 50 µM (inactive) | > 50 | > 50 µM (inactive) | > 50 µM (inactive) | > 50 µM (inactive) | > 50 µM (inactive) |  | > 50 µM (inactive) | > 50 µM (inactive) | > 50 µM (inactive) | > 50 µM (inactive) | > 50 µM (inactive) | > 50 µM (inactive) | > 50 µM (inactive) | > 50 µM (inactive)
5 | CN1CCOC1c1ccccc1O (stereo not given) | > 100 µM (inactive) | > 100 µM (inactive) |  | > 100 µM (inactive) | > 100 µM (inactive) | > 100 µM (inactive) | > 100 | > 100 µM (inactive) | > 100 µM (inactive) | > 100 µM (inactive) | > 100 µM (inactive) | > 100 µM (inactive) | > 100 µM (inactive) | > 100 µM (inactive) | > 100 µM (inactive) | > 100 µM (inactive) | > 100 µM (inactive) | > 100 µM (inactive) | > 100 µM (inactive) | > 100 µM (inactive)
6 | Cc1ccc(-c2cc(-c3ccc(Cl)cc3)nc(/N=C3\C(=O)N(CN4CCOCC4)c4ccccc43)n2)cc1 | 24.9 µM (inactive) | 19.5 µM (inactive) | 9.02 µM (inactive) | 26 µM (inactive) | 18.8 µM (inactive) | 33.3 µM (inactive) | 26.6 | 22.5 µM (inactive) |  | 22.4 µM (inactive) | 21.4 µM (inactive) | 30.4 µM (inactive) | 21.6 µM (inactive) | 14.3 µM (inactive) | 17.6 µM (inactive) | 27.2 µM (inactive) | 17.5 µM (inactive) | 31 µM (inactive) | 31.1 µM (inactive) | 18.8 µM (inactive)
7 | O=C1O/C(=C/c2ccccc2)C(c2ccccc2)=C1O | 36.9 µM (inactive) | > 100 µM (inactive) | 20.1 µM (inactive) | > 100 µM (inactive) | 19 µM (inactive) | 38.1 µM (inactive) | 34.4 | 61.5 µM (inactive) |  | 59.8 µM (inactive) | 46.7 µM (inactive) |  | > 100 µM (inactive) | 29.7 µM (inactive) | 34.4 µM (inactive) | 34.7 µM (inactive) | 33.3 µM (inactive) | 75 µM (inactive) | 61.9 µM (inactive) | 23.1 µM (inactive)
8 | O=C(N/C(=C/c1ccc(Cl)cc1)c1nc2ccccc2c(=O)n1Nc1ccc([N+](=O)[O-])cc1[N+](=O)[O-])c1ccccc1 | > 100 µM (inactive) | > 100 µM (inactive) |  | > 100 µM (inactive) | > 100 µM (inactive) | > 100 µM (inactive) | > 100 | > 100 µM (inactive) | > 100 µM (inactive) | > 100 µM (inactive) | > 100 µM (inactive) |  | > 100 µM (inactive) | > 100 µM (inactive) | > 100 µM (inactive) | > 100 µM (inactive) | > 100 µM (inactive) | > 100 µM (inactive) | > 100 µM (inactive) | 
9 | Cc1ccc(S(=O)(=O)NC(=O)NC(CCC(N)=O)C(=O)O)cc1 (stereo not given) | > 100 µM (inactive) | > 100 µM (inactive) | 69.5 µM (inactive) | > 100 µM (inactive) | > 100 µM (inactive) | > 100 µM (inactive) | > 100 | 64.3 µM (inactive) | > 100 µM (inactive) | > 100 µM (inactive) | > 100 µM (inactive) | > 100 µM (inactive) | > 100 µM (inactive) | > 100 µM (inactive) | > 100 µM (inactive) | > 100 µM (inactive) | > 100 µM (inactive) | > 100 µM (inactive) | > 100 µM (inactive) | 
10 | C/C(=N\n1c(Cc2ccccc2)n[nH]c1=O)c1ccccc1 | > 100 µM (inactive) | > 100 µM (inactive) | > 100 µM (inactive) | > 100 µM (inactive) | > 100 µM (inactive) | > 100 µM (inactive) | > 100 | 26.8 µM (inactive) |  | > 100 µM (inactive) | > 100 µM (inactive) | > 100 µM (inactive) | > 100 µM (inactive) | > 100 µM (inactive) | > 100 µM (inactive) | > 100 µM (inactive) | > 100 µM (inactive) | > 100 µM (inactive) |  | > 100 µM (inactive)
11 | NC(=O)NC(=O)C1CCCCC1C(=O)O (stereo not given) | > 100 µM (inactive) | > 100 µM (inactive) | > 100 µM (inactive) | > 100 µM (inactive) | > 100 µM (inactive) | > 100 µM (inactive) | > 100 | > 100 µM (inactive) |  | > 100 µM (inactive) | > 100 µM (inactive) | > 100 µM (inactive) | > 100 µM (inactive) | > 100 µM (inactive) | > 100 µM (inactive) | > 100 µM (inactive) | > 100 µM (inactive) | > 100 µM (inactive) | > 100 µM (inactive) | > 100 µM (inactive)
12 | Cc1ccc(OCC2CO2)c(Br)c1 (stereo not given) | 16.1 µM (inactive) | 37.8 µM (inactive) | 30.1 µM (inactive) | 17.7 µM (inactive) | 22.5 µM (inactive) | 21.9 µM (inactive) | 14 | 14.7 µM (inactive) |  | 66.7 µM (inactive) | 19.5 µM (inactive) | 13.1 µM (inactive) | 17.5 µM (inactive) | 27.9 µM (inactive) | 18.1 µM (inactive) | 15.8 µM (inactive) | 20.3 µM (inactive) | 30.3 µM (inactive) | 19.1 µM (inactive) | 34.4 µM (inactive)
13 | CCC1(C)C=Cc2c(cc(OC)c3c(=O)c4ccccc4n(C)c23)O1 (stereo not given) | > 10 µM (inactive) | > 10 µM (inactive) |  | > 10 µM (inactive) | > 10 µM (inactive) | > 10 µM (inactive) | 7.23 | > 10 µM (inactive) |  | 1.5 µM (inactive) | 5.27 µM (inactive) | > 10 µM (inactive) | > 10 µM (inactive) | 9.27 µM (inactive) | > 10 µM (inactive) | > 10 µM (inactive) | 3.94 µM (inactive) | > 10 µM (inactive) | > 10 µM (inactive) | > 10 µM (inactive)
14 | C/C=C/C[C@@H](C)C(=O)C1C(=O)N[C@@H](C(C)C)C(=O)N(C)CC(=O)N(C)[C@@H](CC(C)C)C(=O)N[C@@H](C(C)C)C(=O)N(C)[C@@H](CC(C)C)C(=O)N[C@@H](C)C(=O)N[C@@H](C)C(=O)N(C)[C@@H](CC(C)C)C(=O)N(C)[C@@H](CC(C)C)C(=O)N(C)[C@@H](C(C)C)C(=O)N1C (stereo not given in full) | 3.03 µM (inactive) | 5.33 µM (inactive) | 2.8 µM (inactive) |  | 7.83 µM (inactive) | 6.17 µM (inactive) | 5.51 | 7.26 µM (inactive) | 4.07 µM (inactive) | 3.67 µM (inactive) | 7.76 µM (inactive) | 7.89 µM (inactive) | 7.87 µM (inactive) | 4.06 µM (inactive) | 2.99 µM (inactive) | 2.74 µM (inactive) | 3.97 µM (inactive) | 6.1 µM (inactive) | > 20.5 µM (inactive) | 
15 | C/C(=C\CO)CC/C=C(\C)CNc1ccc([N+](=O)[O-])cc1 | 93.5 µM (inactive) | 21.6 µM (inactive) | 19.6 µM (inactive) | 36.6 µM (inactive) | 2.57 µM (inactive) | 26.2 µM (inactive) | 30.1 |  | 4.54 µM (inactive) | 16.1 µM (inactive) | > 100 µM (inactive) | 63.5 µM (inactive) | 41.7 µM (inactive) |  | 12 µM (inactive) | 22 µM (inactive) | 34.2 µM (inactive) | 7.67 µM (inactive) | > 100 µM (inactive) | 
